In patent US20220400680A1, “USE OF ACYLCYANAMIDES OR SALTS THEREOF FOR REGULATING PLANT GROWTH” (Alzchem Trostberg GmbH, priority 2019, published 2022):

Tests used:
[1] = system: Table cherry, type Burlat (C3); test: Greenhouse test, cut cherry branches C3 dipped in test solution, bud development stage; type: in vivo, Prunus avium; set-up: key to Bud development stage, cherry branches C3: Stage 0: Buds unchanged; Stage 1: Buds slightly swollen, first green tips visible; Stage 2: strongly swollen, green buds; Stage 3: Buds before breaking open, leaf or flower root already visible; Stage 4: Flower buds fully developed, but still closed, white petals already visible. In the case of the grapevine, stage 4 was the unfolding of the first leaves; Stage 5: Flowers fully open or, in the case of grapevine, unfolding of the flower roots (“Gescheine”) on the fully leafed sprouts
Procedure, shortened: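 Cut branches kept in water jars in a greenhouse at about 22° C. under natural light after dipping in aqueous solution of 0.15 mol test substance (0.075 mol for bis-cyanamides) plus 0.15 g BreakThru OE-446 per 500 g. Bud development scored on a stage scale from closed buds to fully open flowers.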

[2] = system: Table apple, type Boiken apple (C1); test: Greenhouse test, cut apple branches C1 dipped in test solution, bud development stage; type: in vivo, Malus domestica; set-up: key to Bud development stage, apple branches C1: Stage 0: Buds unchanged; Stage 1: Buds slightly swollen, first green tips visible; Stage 2: strongly swollen, green buds; Stage 3: Buds before breaking open, leaf or flower root already visible; Stage 4: Flower buds fully developed, but still closed, white petals already visible. In the case of the grapevine, stage 4 was the unfolding of the first leaves; Stage 5: Flowers fully open or, in the case of grapevine, unfolding of the flower roots (“Gescheine”) on the fully leafed sprouts
Procedure, shortened: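 Cut Boiken apple branches kept in water jars in a greenhouse at about 22 °C under natural light and dipped in test solution. Solutions contained 0.15 mol test substance (0.075 mol for bis-cyanamides) plus 0.15 g BreakThru OE-446 per 500 g water. Bud development scored on a stage scale up to full flowering.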

[3] = system: Grape, type Pinot Noir (C4); test: Greenhouse test, cut wine sprouts C4 dipped in test solution, bud development stage; type: in vivo, Vitis vinifera subsp. vinifera; set-up: key to Bud development stage, wine sprouts C4: Stage 0: Buds unchanged; Stage 1: Buds slightly swollen, first green tips visible; Stage 2: strongly swollen, green buds; Stage 3: Buds before breaking open, leaf or flower root already visible; Stage 4: Flower buds fully developed, but still closed, white petals already visible. In the case of the grapevine, stage 4 was the unfolding of the first leaves; Stage 5: Flowers fully open or, in the case of grapevine, unfolding of the flower roots (“Gescheine”) on the fully leafed sprouts
Procedure, shortened: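 Cut Pinot Noir grapevine sprouts were dipped in aqueous test solution (0.15 mol test substance, or 0.075 mol for bis-cyanamides, plus 0.15 g BreakThru OE-446 per 500 g total) and kept in water jars at about 22° C under natural light. Bud development was scored on a staged scale from closed buds to fully open flowers.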

[4] = system: table grapes type Red Globe; test: Field test E2 table grapes Spain, bud burst; set-up: species or system Vitis vinifera; conditions: in vivo
Experimental: Three sections of a table grape plantation in southern Spain (type Red Globe) were treated with the following spray mixtures during the dormancy phase 45 days before natural bud burst (February 5):
E2-0: 600 liters per hectare of water with an addition of 0.1% Break-Thru® OE-446 E2-1: 600 liters per hectare of the spray mixture from example D-1 E2-18: 600 liters per hectare of the spray mixture from example D-18
As a result, the grapevine sprouts were evenly wetted.
On April 3, bud burst was recorded numerically.
Budding means number of buds that have developed at least one leaf after n days, based on the total number of buds on the sprouts at time n=0 days (day of application of spray mixture).

[5] = T1 (14 d), 0.15 mol (A-14, A-15: 0.075 mol) per 500 g solution
[6] = stage 4 reached or exceeded after 36 days vs negative control

Structure (SMILES): CC(=O)NC#N.[Na] [Example A-1, Sodium Acetylcyanamide]
- Bud development stage, cherry branches C3 [1, 5]: 1
- Bud development stage, cherry branches C3 ([1]; T2 (16 d)): 2
- Bud development stage, cherry branches C3 ([1]; T3 (21 d)): 5
- Bud development stage, cherry branches C3 ([1]; T4 (27 d)): 5
- Bud development stage, cherry branches C3 ([1]; T5 (36 d)): 5
- Bud development stage, cherry branches C3 ([1]; T6 (56 d)): 5
- Good to very good dormancy-breaking effect, cherry C3 ([1]; stage 4 reached or exceeded after 21 days vs negative control): good to very good dormancy-breaking effect
- Dormancy-breaking effect according to the definition, cherry C3 ([1]; stage 4 reached or exceeded after 27 days vs negative control): dormancy-breaking effect
- Bud development stage, apple branches C1 [2, 5]: 0
- Bud development stage, apple branches C1 ([2]; T2 (16 d)): 0
- Bud development stage, apple branches C1 ([2]; T3 (21 d)): 2
- Bud development stage, apple branches C1 ([2]; T4 (27 d)): 3
- Bud development stage, apple branches C1 ([2]; T5 (36 d)): 5
- Bud development stage, apple branches C1 ([2]; T6 (56 d)): 5
- Dormancy-breaking effect according to the definition, apple C1 [2, 6]: dormancy-breaking effect
- Bud development stage, wine sprouts C4 [3, 5]: 0
- Bud development stage, wine sprouts C4 ([3]; T2 (16 d)): 0
- Bud development stage, wine sprouts C4 ([3]; T3 (21 d)): 0
- Bud development stage, wine sprouts C4 ([3]; T4 (27 d)): 1
- Bud development stage, wine sprouts C4 ([3]; T5 (36 d)): 4
- Bud development stage, wine sprouts C4 ([3]; T6 (56 d)): 5
- Dormancy-breaking effect according to the definition, wine C4 [3, 6]: dormancy-breaking effect
- Effectiveness compared with prior art treatment with cyanamide [4]: as effective as the prior art treatment with cyanamide
